# From PMC5218480 (PLoS ONE, 2017)
# Test system: MV-4-11 cells
# Experiment: Gene expression microarray analysis (Affymetrix PrimeView) and GSEA
# Format: cell-based, human
# Design: RFU PODN (11730768_x_at) / Fold change /veh PODN (11730768_x_at) / RFU LINC00158 (11744669_a_at) / Fold change /veh LINC00158 (11744669_a_at) / RFU DUSP10 (11751237_a_at) / Fold change /veh DUSP10 (11751237_a_at) / RFU ID3 (11757404_x_at) / Fold change /veh ID3 (11757404_x_at) / RFU PLEKHG5 (11737974_s_at) / Fold change /veh PLEKHG5 (11737974_s_at) / RFU LRRC4B (11730491_at) / Fold change /veh LRRC4B (11730491_at) / RFU GIMAP4 (11747438_a_at) / Fold change /veh GIMAP4 (11747438_a_at) / RFU KRT8 (11758183_x_at) / Fold change /veh KRT8 (11758183_x_at) / RFU CNN1 (11734310_a_at) / Fold change /veh CNN1 (11734310_a_at) / RFU VPS37D (11726825_at) / Fold change /veh VPS37D (11726825_at) / RFU C10orf10 (11716522_x_at) / Fold change /veh C10orf10 (11716522_x_at) / RFU KIR2DL2 /// KIR2DL4 /// KIR2DL5A /// KIR2DL5B /// KIR2DS1 /// KIR2DS2 /// KIR2DS3 /// KIR2DS4 /// KIR3DL3 /// KIR3DL3 /// KIR3DS1 (11738374_at) / Fold change /veh KIR2DL2 /// KIR2DL4 /// KIR2DL5A /// KIR2DL5B /// KIR2DS1 /// KIR2DS2 /// KIR2DS3 /// KIR2DS4 /// KIR3DL3 /// KIR3DL3 /// KIR3DS1 (11738374_at) / RFU C1QL1 (11718748_at) / Fold change /veh C1QL1 (11718748_at) / RFU TMPRSS4 (11747572_a_at) / Fold change /veh TMPRSS4 (11747572_a_at) / RFU HAMP (11756126_x_at) / Fold change /veh HAMP (11756126_x_at) / RFU RNFT2 (11725882_a_at) / Fold change /veh RNFT2 (11725882_a_at) / RFU NR4A2 (11747474_a_at) / Fold change /veh NR4A2 (11747474_a_at) / RFU ABCC12 (11746883_a_at) / Fold change /veh ABCC12 (11746883_a_at) / RFU TMEM136 (11760407_x_at) / Fold change /veh TMEM136 (11760407_x_at) / RFU CLDN22 /// WWC2 (11732394_at) / Fold change /veh CLDN22 /// WWC2 (11732394_at) / RFU HLA-DPB1 (11760878_x_at) / Fold change /veh HLA-DPB1 (11760878_x_at) / RFU SPINT1 (11716480_a_at) / Fold change /veh SPINT1 (11716480_a_at) / RFU GAP43 (11754022_s_at) / Fold change /veh GAP43 (11754022_s_at) / RFU A4GNT (11735810_at) / Fold change /veh A4GNT (11735810_at) / RFU PRB3 (11715151_x_at) / Fold change /veh PRB3 (11715151_x_at) / RFU TUBB4B (11761932_at) / Fold change /veh TUBB4B (11761932_at) / RFU CAPN14 (11732068_a_at) / Fold change /veh CAPN14 (11732068_a_at) / RFU TMCC2 (11721928_a_at) / Fold change /veh TMCC2 (11721928_a_at) / RFU IRGQ (11745062_a_at) / Fold change /veh IRGQ (11745062_a_at) / RFU FAM174B (11720279_a_at) / Fold change /veh FAM174B (11720279_a_at) / RFU TMPRSS4 (11748680_a_at) / Fold change /veh TMPRSS4 (11748680_a_at) / RFU FAM212B (11763350_a_at) / Fold change /veh FAM212B (11763350_a_at) / RFU PLEKHG5 (11743358_a_at) / Fold change /veh PLEKHG5 (11743358_a_at) / RFU ZSCAN30 (11745921_a_at) / Fold change /veh ZSCAN30 (11745921_a_at) / RFU CMKLR1 (11741424_a_at) / Fold change /veh CMKLR1 (11741424_a_at) / RFU LOC101060620 /// MAPK8IP1 (11723275_at) / Fold change /veh LOC101060620 /// MAPK8IP1 (11723275_at) / RFU SPTSSB (11747773_x_at) / Fold change /veh SPTSSB (11747773_x_at) / RFU PRSS12 (11739890_at) / Fold change /veh PRSS12 (11739890_at) / RFU BIN1 (11741810_x_at) / Fold change /veh BIN1 (11741810_x_at) / RFU WNT11 (11732464_a_at) / Fold change /veh WNT11 (11732464_a_at) / RFU C10orf10 (11716521_a_at) / Fold change /veh C10orf10 (11716521_a_at) / RFU C5orf56 (11738089_at) / Fold change /veh C5orf56 (11738089_at) / RFU CYB561 (11721691_x_at) / Fold change /veh CYB561 (11721691_x_at) / RFU ANKRD19P (11752326_a_at) / Fold change /veh ANKRD19P (11752326_a_at) / RFU OR2T12 /// OR2T33 /// OR2T8 (11738714_s_at) / Fold change /veh OR2T12 /// OR2T33 /// OR2T8 (11738714_s_at) / RFU VCAN (11748164_a_at) / Fold change /veh VCAN (11748164_a_at) / RFU JSRP1 (11732532_at) / Fold change /veh JSRP1 (11732532_at) / RFU KRTAP10-11 (11738290_x_at) / Fold change /veh KRTAP10-11 (11738290_x_at) / RFU MYO3A (11730013_a_at) / Fold change /veh MYO3A (11730013_a_at) / RFU EBF3 (11725865_a_at) / Fold change /veh EBF3 (11725865_a_at) / RFU CAMK2N1 (11719241_x_at) / Fold change /veh CAMK2N1 (11719241_x_at) / RFU C5orf56 (11738088_a_at) / Fold change /veh C5orf56 (11738088_a_at) / RFU OLFML3 (11715873_a_at) / Fold change /veh OLFML3 (11715873_a_at) / RFU LOC100653217 /// NTM (11731650_a_at) / Fold change /veh LOC100653217 /// NTM (11731650_a_at) / RFU MAPK11 (11762145_a_at) / Fold change /veh MAPK11 (11762145_a_at) / RFU FIZ1 (11724087_x_at) / Fold change /veh FIZ1 (11724087_x_at) / RFU OASL (11726364_x_at) / Fold change /veh OASL (11726364_x_at) / RFU SOX15 (11748057_x_at) / Fold change /veh SOX15 (11748057_x_at) / RFU CD79A (11719716_a_at) / Fold change /veh CD79A (11719716_a_at) / RFU HIST1H1D (11736915_at) / Fold change /veh HIST1H1D (11736915_at) / RFU CASKIN2 (11723855_a_at) / Fold change /veh CASKIN2 (11723855_a_at) / RFU LOC730098 (11760151_x_at) / Fold change /veh LOC730098 (11760151_x_at) / RFU OR4N2 (11742367_at) / Fold change /veh OR4N2 (11742367_at) / RFU PRRT2 (11749266_a_at) / Fold change /veh PRRT2 (11749266_a_at) / RFU SNX32 (11753110_a_at) / Fold change /veh SNX32 (11753110_a_at) / RFU CDHR5 (11726645_a_at) / Fold change /veh CDHR5 (11726645_a_at) / RFU RCAN1 (11760418_a_at) / Fold change /veh RCAN1 (11760418_a_at) / RFU FAM167A (11723789_a_at) / Fold change /veh FAM167A (11723789_a_at) / RFU FAM26E (11764081_at) / Fold change /veh FAM26E (11764081_at) / RFU ISYNA1 (11749810_s_at) / Fold change /veh ISYNA1 (11749810_s_at) / RFU ACY1 (11761880_at) / Fold change /veh ACY1 (11761880_at) / RFU 11764098_at / Fold change /veh 11764098_at / RFU SAMD14 (11745864_x_at) / Fold change /veh SAMD14 (11745864_x_at) / RFU NPB (11741838_a_at) / Fold change /veh NPB (11741838_a_at) / RFU TMPRSS6 (11731388_a_at) / Fold change /veh TMPRSS6 (11731388_a_at) / RFU KRTAP10-2 (11738614_at) / Fold change /veh KRTAP10-2 (11738614_at) / RFU ARHGAP8 /// PRR5-ARHGAP8 (11727945_x_at) / Fold change /veh ARHGAP8 /// PRR5-ARHGAP8 (11727945_x_at) / RFU KRTAP5-7 /// NADSYN1 (11734609_at) / Fold change /veh KRTAP5-7 /// NADSYN1 (11734609_at) / RFU RASL12 (11751679_a_at) / Fold change /veh RASL12 (11751679_a_at) / RFU CDKN2B (11736163_a_at) / Fold change /veh CDKN2B (11736163_a_at) / RFU PRF1 (11729649_at) / Fold change /veh PRF1 (11729649_at) / RFU, ZNF638 /// ZNF638-IT1 / Fold change vs veh, ZNF638 /// ZNF638-IT1 / RFU, PANK3 / Fold change vs veh, PANK3 / RFU, SH3YL1 / Fold change vs veh, SH3YL1 / RFU, ZEB2 / Fold change vs veh, ZEB2 / RFU, NRIP1 / Fold change vs veh, NRIP1 / RFU, PTTG1IP / Fold change vs veh, PTTG1IP / RFU, CAPN2 / Fold change vs veh, CAPN2 / RFU, MED14 / Fold change vs veh, MED14 / RFU, SNORA58 / Fold change vs veh, SNORA58 / RFU, C1orf63 / Fold change vs veh, C1orf63 / RFU, LRRFIP1 / Fold change vs veh, LRRFIP1 / RFU, NDUFAF7 / Fold change vs veh, NDUFAF7 / RFU, SLC12A2 / Fold change vs veh, SLC12A2 / RFU, IBTK / Fold change vs veh, IBTK / RFU, ESF1 / Fold change vs veh, ESF1 / Fold change vs veh, TMEM50B / RFU, TAOK1 / Fold change vs veh, TAOK1 / RFU, ACBD3 / Fold change vs veh, ACBD3 / RFU, TMA16 / Fold change vs veh, TMA16 / RFU, RWDD3 / Fold change vs veh, RWDD3 / RFU, BCAT1 / Fold change vs veh, BCAT1 / RFU, EDEM3 / Fold change vs veh, EDEM3 / RFU, TMEM33 / Fold change vs veh, TMEM33 / RFU, WDR75 / Fold change vs veh, WDR75 / RFU, AHCTF1 / Fold change vs veh, AHCTF1 / RFU, TFRC / Fold change vs veh, TFRC / RFU, ZDHHC17 / Fold change vs veh, ZDHHC17 / RFU, NOM1 / Fold change vs veh, NOM1 / RFU, ARL8B / Fold change vs veh, ARL8B / RFU, ZBTB11 / Fold change vs veh, ZBTB11 / RFU, TAMM41 / Fold change vs veh, TAMM41 / RFU, KIAA1704 /// LOC100996395 / Fold change vs veh, KIAA1704 /// LOC100996395 / RFU, ING1 / Fold change vs veh, ING1 / RFU, TRMT61B / Fold change vs veh, TRMT61B / RFU, FUBP3 / Fold change vs veh, FUBP3 / RFU, TP53 / Fold change vs veh, TP53 / RFU, TNKS2 / Fold change vs veh, TNKS2 / RFU, ZFP14 / Fold change vs veh, ZFP14 / RFU, ACTR2 / Fold change vs veh, ACTR2 / RFU, PPP3R1 / Fold change vs veh, PPP3R1 / RFU, PIK3R1 / Fold change vs veh, PIK3R1 / RFU, HNRNPA1 / Fold change vs veh, HNRNPA1 / RFU, RNF170 / Fold change vs veh, RNF170 / RFU, ZNF28 / Fold change vs veh, ZNF28 / RFU, RNGTT / Fold change vs veh, RNGTT / RFU, OGT / Fold change vs veh, OGT / RFU, BRD1 / Fold change vs veh, BRD1 / RFU, MARS / Fold change vs veh, MARS / RFU, ZNF655 / Fold change vs veh, ZNF655 / RFU, FAHD1 / Fold change vs veh, FAHD1 / RFU, BDP1 / Fold change vs veh, BDP1 / RFU, LRRCC1 / Fold change vs veh, LRRCC1 / RFU, ARID1A / Fold change vs veh, ARID1A / RFU, ZNF146 / Fold change vs veh, ZNF146 / RFU, ZNF330 / Fold change vs veh, ZNF330 / RFU, GPN3 / Fold change vs veh, GPN3 / RFU, C9orf123 / Fold change vs veh, C9orf123 / RFU, N4BP2L2 / Fold change vs veh, N4BP2L2 / RFU, ARFIP1 / Fold change vs veh, ARFIP1 / RFU, FAM179B / Fold change vs veh, FAM179B / RFU, BCL10 / Fold change vs veh, BCL10 / RFU, UHRF1BP1L / Fold change vs veh, UHRF1BP1L / RFU, BET1 / Fold change vs veh, BET1 / RFU, CNOT2 / Fold change vs veh, CNOT2 / RFU, ZNF268 / Fold change vs veh, ZNF268 / Fold change vs veh, ZNF507 / RFU, DGCR2 / Fold change vs veh, DGCR2 / RFU, WDSUB1 / Fold change vs veh, WDSUB1 / Fold change vs veh, HSP90B1 /// MIR3652 / RFU, ADSS / Fold change vs veh, ADSS / RFU, GK / Fold change vs veh, GK / RFU, ZNF148 / Fold change vs veh, ZNF148 / RFU, TAF9 / Fold change vs veh, TAF9 / RFU, SLC1A5 / Fold change vs veh, SLC1A5 / RFU, SLMO2 / Fold change vs veh, SLMO2 / RFU, ABCC4 / Fold change vs veh, ABCC4 / RFU, LOC101060439 /// RAP1B / Fold change vs veh, LOC101060439 /// RAP1B / RFU, RFX7 / Fold change vs veh, RFX7 / RFU, GTPBP10 / Fold change vs veh, GTPBP10 / RFU, CNEP1R1 / Fold change vs veh, CNEP1R1 / RFU, BIVM-ERCC5 /// ERCC5 / Fold change vs veh, BIVM-ERCC5 /// ERCC5 / RFU, ILF3 / Fold change vs veh, ILF3 / RFU 11762660_at / Fold change /veh 11762660_at / RFU VCAN (11757783_s_at) / Fold change /veh VCAN (11757783_s_at) / RFU DDX43 (11728927_at) / Fold change /veh DDX43 (11728927_at) / RFU KRT8 (11758188_x_at) / Fold change /veh KRT8 (11758188_x_at) / RFU NKD1 (11759106_at) / Fold change /veh NKD1 (11759106_at) / RFU SRD5A1 (11742802_a_at) / Fold change /veh SRD5A1 (11742802_a_at) / RFU TPSAB1 /// TPSB2 (11721975_s_at) / Fold change /veh TPSAB1 /// TPSB2 (11721975_s_at) / RFU GSTM3 (11746129_a_at) / Fold change /veh GSTM3 (11746129_a_at) / RFU IL23R (11737362_x_at) / Fold change /veh IL23R (11737362_x_at) / RFU TMEM51 (11727254_a_at) / Fold change /veh TMEM51 (11727254_a_at) / RFU PIWIL2 (11732686_x_at) / Fold change /veh PIWIL2 (11732686_x_at) / RFU ORM1 (11744905_x_at) / Fold change /veh ORM1 (11744905_x_at) / RFU CCDC152 (11743942_at) / Fold change /veh CCDC152 (11743942_at) / RFU ECM1 (11717891_a_at) / Fold change /veh ECM1 (11717891_a_at) / RFU IL23R (11748794_a_at) / Fold change /veh IL23R (11748794_a_at) / RFU TNFAIP8L3 (11732012_x_at) / Fold change /veh TNFAIP8L3 (11732012_x_at) / RFU MBOAT4 (11741988_at) / Fold change /veh MBOAT4 (11741988_at) / RFU 11764193_at / Fold change /veh 11764193_at / RFU TMEM53 (11763286_at) / Fold change /veh TMEM53 (11763286_at) / RFU MAGEB2 (11727129_at) / Fold change /veh MAGEB2 (11727129_at) / RFU TMEM200A (11744735_a_at) / Fold change /veh TMEM200A (11744735_a_at) / RFU CCDC152 (11751479_a_at) / Fold change /veh CCDC152 (11751479_a_at) / RFU FAM211A (11726209_a_at) / Fold change /veh FAM211A (11726209_a_at) / RFU RGS16 (11746705_a_at) / Fold change /veh RGS16 (11746705_a_at) / RFU VCAN (11755009_s_at) / Fold change /veh VCAN (11755009_s_at) / RFU RHOB (11743442_s_at) / Fold change /veh RHOB (11743442_s_at) / RFU RGS16 (11720943_a_at) / Fold change /veh RGS16 (11720943_a_at) / RFU RGS16 (11720944_at) / Fold change /veh RGS16 (11720944_at) / RFU, VPS4B / Fold change vs veh, VPS4B / RFU, CREB1 / Fold change vs veh, CREB1 / RFU, DNAJC13 / Fold change vs veh, DNAJC13 / RFU, GNAQ / Fold change vs veh, GNAQ / RFU, CDK5R1 / Fold change vs veh, CDK5R1 / RFU, ZRANB3 / Fold change vs veh, ZRANB3 / RFU, CUL4A / Fold change vs veh, CUL4A / RFU, CCNY / Fold change vs veh, CCNY / RFU, UFL1 / Fold change vs veh, UFL1 / RFU, COG3 / Fold change vs veh, COG3 / RFU, DIAPH2 / Fold change vs veh, DIAPH2 / RFU, SKA2 / Fold change vs veh, SKA2 / RFU, AFF3 / Fold change vs veh, AFF3 / RFU, LMF1 / Fold change vs veh, LMF1 / RFU, IPO11 / Fold change vs veh, IPO11 / RFU, DFFB / Fold change vs veh, DFFB / RFU, FOXP1 / Fold change vs veh, FOXP1 / RFU, CARD8 / Fold change vs veh, CARD8 / RFU, STRN3 / Fold change vs veh, STRN3 / RFU, ADK / Fold change vs veh, ADK / RFU, RASSF2 / Fold change vs veh, RASSF2 / RFU, WIPF1 / Fold change vs veh, WIPF1 / RFU, LARP1B / Fold change vs veh, LARP1B / RFU, RASA1 / Fold change vs veh, RASA1 / RFU, RB1 / Fold change vs veh, RB1 / RFU, PPFIA1 / Fold change vs veh, PPFIA1 / RFU, MAT2A / Fold change vs veh, MAT2A / RFU, CCT5 / Fold change vs veh, CCT5 / RFU, WDR92 / Fold change vs veh, WDR92 / RFU, CUX1 / Fold change vs veh, CUX1 / RFU, TTC7A / Fold change vs veh, TTC7A / RFU, TMEM135 / Fold change vs veh, TMEM135 / RFU, DEPTOR / Fold change vs veh, DEPTOR / RFU, CPM / Fold change vs veh, CPM / RFU, DNAJB6 / Fold change vs veh, DNAJB6 / RFU, CACNA2D3 / Fold change vs veh, CACNA2D3 / RFU, DTX4 / Fold change vs veh, DTX4 / RFU, TFCP2 / Fold change vs veh, TFCP2 / RFU, GMCL1 /// GMCL1P1 / Fold change vs veh, GMCL1 /// GMCL1P1 / RFU, AEBP2 / Fold change vs veh, AEBP2 / RFU, SNHG1 /// SNORD22 /// SNORD25 /// SNORD26 /// SNORD27 /// SNORD28 /// SNORD29 /// SNORD31 / Fold change vs veh, SNHG1 /// SNORD22 /// SNORD25 /// SNORD26 /// SNORD27 /// SNORD28 /// SNORD29 /// SNORD31 / Fold change (Aza/veh), C12orf56 (ProbeSet 11735607_a_at) / Fold change (ACY-1035/veh), C12orf56 (ProbeSet 11735607_a_at) / Fold change (Aza/veh), FGFR1OP (ProbeSet 11751329_s_at) / Fold change (ACY-1035/veh), FGFR1OP (ProbeSet 11751329_s_at) / Fold change (Aza/veh), VPS36 (ProbeSet 11739960_a_at) / Fold change (ACY-1035/veh), VPS36 (ProbeSet 11739960_a_at) / RFU SYPL1 (11715823_x_at) / Fold change /veh SYPL1 (11715823_x_at) / RFU IGFBP7 (11715501_s_at) / Fold change /veh IGFBP7 (11715501_s_at) / RFU REEP3 (11722064_at) / Fold change /veh REEP3 (11722064_at) / RFU IGLL1 (11728026_x_at) / Fold change /veh IGLL1 (11728026_x_at): dose or concentration left out as unconfirmed
# Details: ProbeSet 11728676_at; LIST B
structure (smiles),measurement,value
Nc1ncn([C@@H]2O[C@H](CO)[C@@H](O)[C@H]2O)c(=O)n1 [azacitidine],"RFU, MED14",205.61 RFU
